{"source": "patent US10758534B2", "about": "(Vertex Pharmaceuticals Incorporated, priority 2014, dated 2020)", "target": "T1, F508del (Homo sapiens, UniProt P13569, DEL508-508)", "T1 construct": "expressed in transfected cells", "T1 sequence (P13569 with tags, fused parts or gaps DEL508-508)": "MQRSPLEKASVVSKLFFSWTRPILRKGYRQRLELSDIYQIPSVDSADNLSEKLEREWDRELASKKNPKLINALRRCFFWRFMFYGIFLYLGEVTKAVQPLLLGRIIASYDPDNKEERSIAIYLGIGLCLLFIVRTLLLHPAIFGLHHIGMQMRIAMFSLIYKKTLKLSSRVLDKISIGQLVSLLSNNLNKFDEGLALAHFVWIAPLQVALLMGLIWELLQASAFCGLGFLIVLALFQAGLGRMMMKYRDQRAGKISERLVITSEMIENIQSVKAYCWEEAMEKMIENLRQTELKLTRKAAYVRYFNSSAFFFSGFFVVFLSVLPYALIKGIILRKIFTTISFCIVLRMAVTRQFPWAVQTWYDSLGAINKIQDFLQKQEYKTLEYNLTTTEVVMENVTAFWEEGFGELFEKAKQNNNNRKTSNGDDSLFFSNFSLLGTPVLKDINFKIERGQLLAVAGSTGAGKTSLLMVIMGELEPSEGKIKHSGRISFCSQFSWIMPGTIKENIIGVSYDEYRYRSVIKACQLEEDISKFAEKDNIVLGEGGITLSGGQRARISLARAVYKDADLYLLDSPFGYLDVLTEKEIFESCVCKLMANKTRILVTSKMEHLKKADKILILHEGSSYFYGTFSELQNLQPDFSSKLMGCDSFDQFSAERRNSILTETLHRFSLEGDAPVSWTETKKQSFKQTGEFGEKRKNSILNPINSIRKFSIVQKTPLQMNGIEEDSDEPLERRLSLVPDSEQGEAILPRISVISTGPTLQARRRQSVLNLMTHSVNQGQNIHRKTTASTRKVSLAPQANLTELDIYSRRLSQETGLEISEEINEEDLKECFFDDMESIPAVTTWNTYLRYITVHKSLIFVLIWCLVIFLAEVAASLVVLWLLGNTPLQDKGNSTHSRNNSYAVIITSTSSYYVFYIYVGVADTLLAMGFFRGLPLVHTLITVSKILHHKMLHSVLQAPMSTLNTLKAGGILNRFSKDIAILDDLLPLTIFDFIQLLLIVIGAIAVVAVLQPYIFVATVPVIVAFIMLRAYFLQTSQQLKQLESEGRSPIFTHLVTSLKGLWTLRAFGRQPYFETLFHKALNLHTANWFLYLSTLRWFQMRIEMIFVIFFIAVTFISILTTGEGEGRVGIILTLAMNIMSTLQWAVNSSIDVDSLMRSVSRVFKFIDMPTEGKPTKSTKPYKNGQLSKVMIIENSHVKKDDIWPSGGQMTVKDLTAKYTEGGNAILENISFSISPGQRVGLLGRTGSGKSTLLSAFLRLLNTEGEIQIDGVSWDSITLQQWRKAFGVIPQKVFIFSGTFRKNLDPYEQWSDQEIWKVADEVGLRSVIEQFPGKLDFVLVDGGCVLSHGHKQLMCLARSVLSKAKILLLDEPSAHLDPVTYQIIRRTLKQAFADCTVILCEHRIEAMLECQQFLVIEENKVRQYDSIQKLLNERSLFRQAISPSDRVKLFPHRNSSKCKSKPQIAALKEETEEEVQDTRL", "test": "Protocol 2: FRET membrane potential optical assay (VIPR), identification of correction compounds", "assay_type": "cell-based", "conditions": "F508del CFTR modulator activity; compounds of Table 1; read-out: EC30", "summary_of_the_method": "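NIH3T3 mouse fibroblasts stably expressing F508del-CFTR incubated with compound 16 h at 37 °C in serum-free medium, then loaded with CC2-DMPE/DiSBAC2(3) FRET dyes. Channel activated with 10 μM forskolin plus 20 μM genistein in Cl⁻-free (gluconate) bath; depolarisation from Cl⁻ efflux read on VIPR II.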", "data": [{"smiles": "CCOc1ccc(CCNc2cccc(S(=O)(=O)NC(=O)c3cccnc3N3CC(C)CC3(C)C)n2)cc1", "note": "(centres unmarked) [Compound 2642, N—[[6-[2-(4-ethoxyphenyl)ethylamino]-2-pyridyl]sulfonyl]-2-(2,2,4-trimethylpyrrolidin-1-yl)pyridine-3-carboxamide]", "values": [{"measurement": "EC30", "result": "< 3000", "unit": "nM"}]}, {"smiles": "Cc1ccc2cccc(Oc3cccc(S(=O)(=O)NC(=O)c4cccnc4N4CC(C)CC4(C)C)n3)c2n1", "note": "(centres unmarked) [Compound 2643, N—[[6-[(2-methyl-8-quinolyl)oxy]-2-pyridyl]sulfonyl]-2-(2,2,4-trimethylpyrrolidin-1-yl)pyridine-3-carboxamide]", "values": [{"measurement": "EC30", "result": "< 3000", "unit": "nM"}]}, {"smiles": "C[C@@H]1CN(c2nc(-c3ccc(C(F)F)cc3)ccc2C(=O)NS(=O)(=O)c2cccnc2N)C(C)(C)C1", "note": "[Compound 2644, N-[(2-amino-3-pyridyl)sulfonyl]-6-[4-(difluoromethyl)phenyl]-2-[(4S)-2,2,4-trimethylpyrrolidin-1-yl]pyridine-3-carboxamide]", "values": [{"measurement": "EC30", "result": "< 3000", "unit": "nM"}]}, {"smiles": "COc1ccc(Cl)cc1COc1cccc(S(=O)(=O)NC(=O)c2cccnc2N2CC(C)CC2(C)C)n1", "note": "(centres unmarked) [Compound 2645, N—[[6-[(5-chloro-2-methoxy-phenyl)methoxy]-2-pyridyl]sulfonyl]-2-(2,2,4-trimethylpyrrolidin-1-yl)pyridine-3-carboxamide]", "values": [{"measurement": "EC30", "result": "< 3000", "unit": "nM"}]}, {"smiles": "COc1cc(-c2ccc(C(=O)NS(=O)(=O)c3cccnc3N)c(N3C[C@@H](C)CC3(C)C)n2)ccn1", "note": "[Compound 2646, N-[(2-amino-3-pyridyl)sulfonyl]-6-(2-methoxy-4-pyridyl)-2-[(4S)-2,2,4-trimethylpyrrolidin-1-yl]pyridine-3-carboxamide]", "values": [{"measurement": "EC30", "result": "< 3000", "unit": "nM"}]}, {"smiles": "CC(C)CC/C=C/c1cnc(N2CC(C)CC2(C)C)c(C(=O)NS(=O)(=O)c2cccc(N)n2)c1", "note": "(centres unmarked) [Compound 2647, N-[(6-amino-2-pyridyl)sulfonyl]-5-[(E)-5-methylhex-1-enyl]-2-(2,2,4-trimethylpyrrolidin-1-yl)pyridine-3-carboxamide]", "values": [{"measurement": "EC30", "result": "< 3000", "unit": "nM"}]}, {"smiles": "CC(C)=CCOc1cccc(S(=O)(=O)NC(=O)c2cccnc2N2CC(C)CC2(C)C)n1", "note": "(centres unmarked) [Compound 2648, N—[[6-(3-methylbut-2-enoxy)-2-pyridyl]sulfonyl]-2-(2,2,4-trimethylpyrrolidin-1-yl)pyridine-3-carboxamide]", "values": [{"measurement": "EC30", "result": "< 3000", "unit": "nM"}]}, {"smiles": "CC1CN(c2ncc(-c3ccc(OC(F)(F)F)cc3)cc2C(=O)NS(=O)(=O)c2cccc(N)n2)C(C)(C)C1", "note": "(centres unmarked) [Compound 2649, N-[(6-amino-2-pyridyl)sulfonyl]-5-[4-(trifluoromethoxy)phenyl]-2-(2,2,4-trimethylpyrrolidin-1-yl)pyridine-3-carboxamide]", "values": [{"measurement": "EC30", "result": "< 3000", "unit": "nM"}]}, {"smiles": "C[C@@H]1CN(c2nc(C3=CCCN(C(=O)CC(C)(C)C)C3)ccc2C(=O)NS(=O)(=O)c2cccc(N)n2)C(C)(C)C1", "note": "[Compound 2650, N-[(6-amino-2-pyridyl)sulfonyl]-6-[1-(3,3-dimethylbutanoyl)-3,6-dihydro-2H-pyridin-5-yl]-2-[(4S)-2,2,4-trimethylpyrrolidin-1-yl]pyridine-3-carboxamide]", "values": [{"measurement": "EC30", "result": "3000 to 10000", "unit": "nM"}]}, {"smiles": "CCOc1ncc(-c2ccc(C(=O)NS(=O)(=O)c3cccnc3N)c(N3C[C@@H](C)CC3(C)C)n2)cc1C", "note": "[Compound 2651, N-[(2-amino-3-pyridyl)sulfonyl]-6-(6-ethoxy-5-methyl-3-pyridyl)-2-[(4S)-2,2,4-trimethylpyrrolidin-1-yl]pyridine-3-carboxamide]", "values": [{"measurement": "EC30", "result": "< 3000", "unit": "nM"}]}, {"smiles": "C[C@@H]1CN(c2nc(-c3cc(F)cc(F)c3)ccc2C(=O)NS(=O)(=O)c2ccc[nH]c2=O)C(C)(C)C1", "note": "[Compound 2652, 6-(3,5-difluorophenyl)-N-[(2-oxo-1H-pyridin-3-yl)sulfonyl]-2-[(4S)-2,2,4-trimethylpyrrolidin-1-yl]pyridine-3-carboxamide]", "values": [{"measurement": "EC30", "result": "< 3000", "unit": "nM"}]}, {"smiles": "C[C@@H]1CN(c2nc(-c3ccc(F)cc3O)ccc2C(=O)NS(=O)(=O)c2cccnc2N)C(C)(C)C1", "note": "[Compound 2653, N-[(2-amino-3-pyridyl)sulfonyl]-6-(4-fluoro-2-hydroxy-phenyl)-2-[(4S)-2,2,4-trimethylpyrrolidin-1-yl]pyridine-3-carboxamide]", "values": [{"measurement": "EC30", "result": "< 3000", "unit": "nM"}]}, {"smiles": "CC1CN(c2ncccc2C(=O)NS(=O)(=O)c2cccc(Oc3c(F)cc(F)cc3F)n2)C(C)(C)C1", "note": "(centres unmarked) [Compound 2654, N—[[6-(2,4,6-trifluorophenoxy)-2-pyridyl]sulfonyl]-2-(2,2,4-trimethylpyrrolidin-1-yl)pyridine-3-carboxamide]", "values": [{"measurement": "EC30", "result": "< 3000", "unit": "nM"}]}, {"smiles": "CC(C)COc1cc(F)cc(-c2ccc(C(=O)NS(=O)(=O)C3CCCNC3)c(N3C[C@@H](C)CC3(C)C)n2)c1", "note": "(stereo partly drawn) [Compound 2655, 6-(3-fluoro-5-isobutoxy-phenyl)-N-(3-piperidylsulfonyl)-2-[(4S)-2,2,4-trimethylpyrrolidin-1-yl]pyridine-3-carboxamide]", "values": [{"measurement": "EC30", "result": "< 3000", "unit": "nM"}]}, {"smiles": "CC1CN(c2ncccc2C(=O)NS(=O)(=O)c2cccc(Nc3ccc(Cl)cn3)n2)C(C)(C)C1", "note": "(centres unmarked) [Compound 2656, N—[[6-[(5-chloro-2-pyridyl)amino]-2-pyridyl]sulfonyl]-2-(2,2,4-trimethylpyrrolidin-1-yl)pyridine-3-carboxamide]", "values": [{"measurement": "EC30", "result": "< 3000", "unit": "nM"}]}, {"smiles": "C[C@@H]1CN(c2nc(-c3cc4ccccc4n3C(=O)OC(C)(C)C)ccc2C(=O)NS(=O)(=O)c2cccnc2N)C(C)(C)C1", "note": "[Compound 2657, tert-butyl 2-[5-[(2-amino-3-pyridyl)sulfonylcarbamoyl]-6-[(4S)-2,2,4-trimethylpyrrolidin-1-yl]-2-pyridyl]indole-1-carboxylate]", "values": [{"measurement": "EC30", "result": "3000 to 10000", "unit": "nM"}]}, {"smiles": "CC(C)Oc1cnn(-c2ccc(C(=O)NS(=O)(=O)c3cccc(N)n3)c(N3C[C@@H](C)CC3(C)C)n2)c1", "note": "[Compound 2658, N-[(6-amino-2-pyridyl)sulfonyl]-6-(4-isopropoxypyrazol-1-yl)-2-[(4S)-2,2,4-trimethylpyrrolidin-1-yl]pyridine-3-carboxamide]", "values": [{"measurement": "EC30", "result": "3000 to 10000", "unit": "nM"}]}, {"smiles": "CC1CN(c2ncccc2C(=O)NS(=O)(=O)c2cccc(Nc3ccccc3C#N)n2)C(C)(C)C1", "note": "(centres unmarked) [Compound 2659, N—[[6-(2-cyanoanilino)-2-pyridyl]sulfonyl]-2-(2,2,4-trimethylpyrrolidin-1-yl)pyridine-3-carboxamide]", "values": [{"measurement": "EC30", "result": "3000 to 10000", "unit": "nM"}]}, {"smiles": "Cc1ccc(F)cc1-c1ccc(C(=O)NS(=O)(=O)c2cccnc2N)c(N2C[C@@H](C)CC2(C)C)n1", "note": "[Compound 2660, N-[(2-amino-3-pyridyl)sulfonyl]-6-(5-fluoro-2-methyl-phenyl)-2-[(4S)-2,2,4-trimethylpyrrolidin-1-yl]pyridine-3-carboxamide]", "values": [{"measurement": "EC30", "result": "< 3000", "unit": "nM"}]}, {"smiles": "COc1ccc(CNc2cccc(S(=O)(=O)NC(=O)c3cccnc3N3CC(C)CC3(C)C)n2)cc1OC", "note": "(centres unmarked) [Compound 2662, N—[[6-[(3,4-dimethoxyphenyl)methylamino]-2-pyridyl]sulfonyl]-2-(2,2,4-trimethylpyrrolidin-1-yl)pyridine-3-carboxamide]", "values": [{"measurement": "EC30", "result": "3000 to 10000", "unit": "nM"}]}, {"smiles": "CC1CN(c2ncccc2C(=O)NS(=O)(=O)c2cccc(Oc3cc(Cl)cc(Cl)c3)n2)C(C)(C)C1", "note": "(centres unmarked) [Compound 2663, N—[[6-(3,5-dichlorophenoxy)-2-pyridyl]sulfonyl]-2-(2,2,4-trimethylpyrrolidin-1-yl)pyridine-3-carboxamide]", "values": [{"measurement": "EC30", "result": "< 3000", "unit": "nM"}]}, {"smiles": "COc1ccc(-c2ccc(C(=O)NS(=O)(=O)c3cccnc3N)c(N3C[C@@H](C)CC3(C)C)n2)cc1OC", "note": "[Compound 2664, N-[(2-amino-3-pyridyl)sulfonyl]-6-(3,4-dimethoxyphenyl)-2-[(4S)-2,2,4-trimethylpyrrolidin-1-yl]pyridine-3-carboxamide]", "values": [{"measurement": "EC30", "result": "< 3000", "unit": "nM"}]}, {"smiles": "CCOc1cc(-c2ccc(C(=O)NS(=O)(=O)c3cccnc3N)c(N3C[C@@H](C)CC3(C)C)n2)ccc1F", "note": "[Compound 2665, N-[(2-amino-3-pyridyl)sulfonyl]-6-(3-ethoxy-4-fluoro-phenyl)-2-[(4S)-2,2,4-trimethylpyrrolidin-1-yl]pyridine-3-carboxamide]", "values": [{"measurement": "EC30", "result": "< 3000", "unit": "nM"}]}, {"smiles": "COc1ccccc1-c1ccc(C(=O)NS(=O)(=O)N2CC[C@H](N)C2)c(N2C[C@@H](C)CC2(C)C)n1", "note": "[Compound 2666, N-[(3S)-3-aminopyrrolidin-1-yl]sulfonyl-6-(2-methoxyphenyl)-2-[(4S)-2,2,4-trimethylpyrrolidin-1-yl]pyridine-3-carboxamide]", "values": [{"measurement": "EC30", "result": "3000 to 10000", "unit": "nM"}]}, {"smiles": "COc1ccc(-c2ccc(C(=O)NS(=O)(=O)c3cccnc3N)c(N3C[C@@H](C)CC3(C)C)n2)cc1", "note": "[Compound 2667, N-[(2-amino-3-pyridyl)sulfonyl]-6-(4-methoxyphenyl)-2-[(4S)-2,2,4-trimethylpyrrolidin-1-yl]pyridine-3-carboxamide]", "values": [{"measurement": "EC30", "result": "< 3000", "unit": "nM"}]}, {"smiles": "Cc1nn(C)c(C)c1-c1ccc(C(=O)NS(=O)(=O)c2cccnc2N)c(N2C[C@@H](C)CC2(C)C)n1", "note": "[Compound 2668, N-[(2-amino-3-pyridyl)sulfonyl]-6-(1,3,5-trimethylpyrazol-4-yl)-2-[(4S)-2,2,4-trimethylpyrrolidin-1-yl]pyridine-3-carboxamide]", "values": [{"measurement": "EC30", "result": "3000 to 10000", "unit": "nM"}]}, {"smiles": "Cc1cc(C(=O)c2ccccc2)cc(C)c1Oc1nc(-c2cc(F)cc(OCC(C)C)c2)ccc1C(=O)NS(=O)(=O)c1cccc(N)n1", "note": "[Compound 2669, N-[(6-amino-2-pyridyl)sulfonyl]-2-(4-benzoyl-2,6-dimethyl-phenoxy)-6-(3-fluoro-5-isobutoxy-phenyl)pyridine-3-carboxamide]", "values": [{"measurement": "EC30", "result": "< 3000", "unit": "nM"}]}, {"smiles": "C[C@@H]1CN(c2nc(-n3ccc(OCC(C)(C)C)n3)ccc2C(=O)NS(=O)(=O)c2cccnc2N2CCCCC2)C(C)(C)C1", "note": "[Compound 2670, 6-[3-(2,2-dimethylpropoxy)pyrazol-1-yl]-N-[[2-(1-piperidyl)-3-pyridyl]sulfonyl]-2-[(4S)-2,2,4-trimethylpyrrolidin-1-yl]pyridine-3-carboxamide]", "values": [{"measurement": "EC30", "result": "< 3000", "unit": "nM"}]}, {"smiles": "Cc1cc(I)cc(C)c1Oc1nc(-c2cc(F)cc(OCC(C)C)c2)ccc1C(=O)NS(=O)(=O)c1cccc(N)n1", "note": "[Compound 2671, N-[(6-amino-2-pyridyl)sulfonyl]-6-(3-fluoro-5-isobutoxy-phenyl)-2-(4-iodo-2,6-dimethyl-phenoxy)pyridine-3-carboxamide]", "values": [{"measurement": "EC30", "result": "< 3000", "unit": "nM"}]}]}
